According to PubChem BioAssay (NCI):
Values joined by “and” are separate entries in the source; they are usually repeats but may differ in a detail not shown here. Equal values may be shown once.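 Dose response: 5 concentrations. Exposure: 48 h. Format: 96-well plates. Endpoint: linear interpolation; highest concentration if not reached. Abbreviation: GI50, concentration required for 50% inhibition of growth. TGI denotes the concentration required for complete inhibition of growth.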

Legend:
Experiment in all cases: growth of human tumour cells (NCI), 48 h
HCT-116 colon = test system: HCT-116 colon
NCI-H226 lung = test system: NCI-H226 lung
NCI-H522 lung = test system: NCI-H522 lung
OVCAR-5 ovarian = test system: OVCAR-5 ovarian
HT29 colon = test system: HT29 colon
HL-60(TB) leukemia = test system: HL-60(TB) leukemia
HCC-2998 colon = test system: HCC-2998 colon
MALME-3M melanoma = test system: MALME-3M melanoma
NCI-H23 lung = test system: NCI-H23 lung
SK-MEL-2 melanoma = test system: SK-MEL-2 melanoma

Row | SMILES | GI50 (HCT-116 colon) | TGI (HCT-116 colon) | GI50 (NCI-H226 lung) | TGI (NCI-H226 lung) | GI50 (NCI-H522 lung) | TGI (NCI-H522 lung) | GI50 (OVCAR-5 ovarian) | TGI (OVCAR-5 ovarian) | GI50 (HT29 colon) | TGI (HT29 colon) | GI50 (HL-60(TB) leukemia) | TGI (HL-60(TB) leukemia) | GI50 (HCC-2998 colon) | TGI (HCC-2998 colon) | GI50 (MALME-3M melanoma) | TGI (MALME-3M melanoma) | GI50 (NCI-H23 lung) | TGI (NCI-H23 lung) | GI50 (SK-MEL-2 melanoma) | TGI (SK-MEL-2 melanoma)
1 | CCN1CCN(CC(=O)Nc2nc3ccc(NCc4ccc(C)cc4)cc3s2)CC1 | 1.53 µM | 5.32 µM | 7.77 µM | 18.8 µM | 4.45 µM | 11.5 µM | 5.63 µM | 13.4 µM | 1.27 µM | 3.48 µM | 1.05 µM | 2.25 µM | 6.5 µM | 14.6 µM | 1.04 µM | 2.43 µM | 5.91 µM | 13.9 µM | 5.53 µM | 12.8 µM
2 | Cc1cc(N2CCN(C)CC2)nc(N(CCNc2ccnc3cc(Cl)ccc23)Cc2ccco2)n1 | 2.6 µM | 10.4 µM | 19.6 µM | 37.9 µM | 3.51 µM | 13.3 µM | 5.89 µM | 19.4 µM | 2.47 µM | 10.4 µM | 2.25 µM | 5.97 µM | 2.65 µM | 11.1 µM | 1.94 µM | 3.71 µM | 6.26 µM | 21.4 µM | 2.26 µM | 5.58 µM
3 | Cc1ccc(C)c(NC(=O)C(=O)CC(=O)c2cccc3ccccc23)c1 |  | > 100 µM |  | > 100 µM |  | > 100 µM |  | > 100 µM |  | > 100 µM |  | > 100 µM |  | > 100 µM |  | > 100 µM |  | > 100 µM |  | > 100 µM
4 | CCOP(=O)(CCN1CCN(CCCCCOc2cc3c(cc2OC)C(=O)N2CCC[C@H]2C=N3)CC1)OCC | 7.66 µM | 80.8 µM | 17.1 µM | 65.5 µM | 1.93 µM | 7.8 µM | 27.7 µM | 76.6 µM | 6.84 µM | > 100 µM | 1.82 µM | 8.39 µM | 17.3 µM | 38.1 µM | 18.4 µM | 47.7 µM | 16.6 µM | 38.4 µM | 12.5 µM | 32 µM
5 | COC(=O)c1c2c(c(C)[n+]([O-])c1C)C(=O)C=C(NCc1ccc(Br)cc1)C2=O | 0.173 µM | 0.667 µM | 1.3 µM | 2.98 µM | 1.23 µM | 4.11 µM | 1.33 µM | 2.83 µM | 0.339 µM | > 100 µM | 0.309 µM | 1.5 µM | 0.491 µM | 1.9 µM | 0.154 µM | 0.389 µM | 0.721 µM | 3.32 µM | 1.55 µM | 4.13 µM
6 | CC[C@@]1(O)C(=O)OCc2c1cc1n(c2=O)Cc2cc3c(Cl)c4c(cc3nc2-1)OCO4 | 1.1 µM | > 100 µM | < 0.001 µM | 0.0701 µM |  | 7.58 µM and 60.5 µM | 0.985 µM and 0.193 µM | 1.69 µM |  | 7.85 µM | < 0.001 µM | 0.00518 µM and 0.0164 µM | 0.149 µM and 0.235 µM | 6.42 µM | 0.087 µM | 31.4 µM | < 0.001 µM |  |  | 
7 | Cc1ccc2c(n1)C(=O)C(Cl)=C(Nc1ccc(N3CCN(C)CC3)cc1)C2=O | 1.67 µM | 3.19 µM | 1.77 µM | 3.38 µM | 1.86 µM | 4.78 µM | 1.82 µM | 3.34 µM | 2.19 µM | 4.92 µM | 2.22 µM | 4.89 µM | 4.54 µM | 17.5 µM | 1.62 µM | 2.99 µM | 1.79 µM | 3.75 µM | 1.87 µM | 3.56 µM
8 | CC(=O)Nc1cc(C(c2ccccc2)c2ccccc2)cc(C(c2ccccc2)c2ccccc2)c1C | 3.28 µM | > 100 µM | 6.8 µM | > 100 µM | 6.39 µM | > 100 µM | > 100 µM | > 100 µM | 8.26 µM | > 100 µM | 3.1 µM | > 100 µM | 14.7 µM | > 100 µM | 9.59 µM | > 100 µM | 6.22 µM | > 100 µM | 5.18 µM | > 100 µM
9 | O=S1CCN(Cc2ccc(-c3ccc4ncnc(Nc5ccc(OCc6ccccc6)c(F)c5)c4c3)o2)CC1 | 9.96 µM | > 25 µM | 5.61 µM | 19.2 µM | 0.984 µM | > 20.1 µM | 13.9 µM | > 25 µM | 5.21 µM | > 25 µM | 8.32 µM | 18.6 µM | 9.93 µM | > 25 µM | 7.08 µM | > 22.6 µM | 11.3 µM | > 25 µM | 5.46 µM | 12.2 µM
10 | [CH3][Sn]([CH3])([CH3])[O]C(=O)C(O)c1ccccc1 (configuration not stated) | 3.58 µM | 31.6 µM | 16.4 µM | 94 µM | 2.6 µM | 13.1 µM | 9.91 µM | 76.4 µM | 3.45 µM | 31.6 µM | 4.75 µM | > 40.5 µM | 2.32 µM | 7.15 µM | 5.6 µM | 24.8 µM | 6.68 µM | 61.8 µM | 2.06 µM | 4.51 µM
11 | CC1=C(C(=O)Nc2cccc(C(F)(F)F)c2)C(c2ccccc2F)C(C(=O)Nc2cccc(C(F)(F)F)c2)=C(C)N1 |  | 13.5 µM |  | 18.4 µM |  | 17.5 µM |  | 24.5 µM |  | 11.5 µM |  | 7.98 µM |  | 7.67 µM |  | 21.8 µM |  | 17 µM |  | 11 µM
12 | O=C(NC1CCNCC1)c1[nH]ncc1NC(=O)c1c(Cl)cccc1Cl | 0.315 µM and 0.285 µM | > 100 µM | 0.346 µM and 0.325 µM | 4.01 µM and 2.32 µM | 0.387 µM and 0.28 µM | 1.94 µM and 2.17 µM | 0.348 µM and 0.282 µM | > 100 µM | 0.398 µM and 0.406 µM | 6.29 µM and > 10 µM | 0.305 µM and 0.285 µM | 1.09 µM and 1.64 µM | 0.396 µM and 0.328 µM | 12 µM and > 6.08 µM | 0.325 µM and 0.257 µM | 1.68 µM and 1.03 µM | 1.03 µM and 0.393 µM | 9.87 µM and 3.23 µM | 0.216 µM and 0.303 µM | 0.519 µM and 1.14 µM
13 | O=C(N/N=C/c1ccncc1)c1ccc(C(F)(F)F)nc1Nc1cccc(C(F)(F)F)c1 | 1.4 µM | 10.4 µM | 2.65 µM | 11 µM | 2.7 µM | 10.7 µM | 2.83 µM | 14.8 µM | 3.43 µM | 11 µM | 1.82 µM | 8.2 µM | 2.15 µM | 8.94 µM | 2 µM | 6.99 µM | 4.34 µM | 16.2 µM |  | 
14 | O=S1c2ccccc2N=C(c2ccc3ccccc3c2)CC1c1ccccc1F (configuration not stated) |  |  |  | > 100 µM |  | > 100 µM |  | > 100 µM |  | > 100 µM |  | > 100 µM |  | > 100 µM |  | > 100 µM |  | > 100 µM |  | > 100 µM
